According to patent publication US20250308633A1, “Methods Regarding the Treatment or Prevention of Diseases Including Cancer by Modulating Transcriptional Networks Controlling MET and EMT” (Yale University, priority 2024, published 2025):

Molecular target: T1, ESRRA (Homo sapiens, UniProt P11474)
T1 construct: endogenous in cells; host or cells: HCC38 CD44hi cells (FACS-sorted from bulk HCC38, 2D culture)
T1 sequence (P11474 1-423): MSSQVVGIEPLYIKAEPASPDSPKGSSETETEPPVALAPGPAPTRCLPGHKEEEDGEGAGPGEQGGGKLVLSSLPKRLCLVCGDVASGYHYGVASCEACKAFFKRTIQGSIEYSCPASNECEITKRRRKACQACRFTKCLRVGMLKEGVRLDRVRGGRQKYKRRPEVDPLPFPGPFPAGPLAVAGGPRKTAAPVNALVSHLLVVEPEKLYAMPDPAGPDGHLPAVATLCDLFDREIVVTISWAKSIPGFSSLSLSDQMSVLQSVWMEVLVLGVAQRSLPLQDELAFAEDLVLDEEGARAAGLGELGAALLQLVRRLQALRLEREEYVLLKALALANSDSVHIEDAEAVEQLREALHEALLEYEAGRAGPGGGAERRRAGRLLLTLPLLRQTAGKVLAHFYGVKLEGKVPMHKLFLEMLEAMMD
Assay: Western blot of CDH1 expression after ESRRA inhibitor (C14) treatment of HCC38 CD44hi cells
Format: cell-based
Conditions: 2D cultured HCC38 CD44hi cells; 5 and 10 M; 48 hours post-treatment; vs DMSO vehicle; n=3 biological replicates; p≤0.05
Procedure: In parallel, HCC38 CD44^hi cells were also treated with an ESRRA inhibitor ((2-Aminophenyl)(1-(3-isopropylphenyl)-1H-1,2,3-triazol-4-yl)methanone) (BLD Pharm, China, Cat no. BD01201330) (referred to as Compound 14 (C14) herein) at 5 and 10 M concentrations. Vehicle controls were treated with DMSO. Cells were harvested 48 hours post-treatment and processed for protein extraction which were studied for changes in ESRRA and CDH1 expression using western blot (n=3 biological replicates).
Western Blotting: Proteins were extracted from control and treated cells using ice cold modified RIPA buffer (50 mM Tris-HCl pH 7.5, 150 mM NaCl, 1 mM EDTA, 1 mM EGTA, 1% Triton X-100, 0.1% SDS with supplemented with 1× protease and phosphatase inhibitor cocktails). The lysates were sonicated using a QSONICA Q55 probe sonicator at […] for 20 seconds in an ice bath. This whole cell lysate was centrifuged at 14,000×g for 10 min at 4° C. and stored in −80° C. until further use. Proteins were quantified using the Pierce™ BCA Protein Assay Kit (Cat. 23227, Thermo Fisher Scientific, USA) as per the manufacturer's instructions. […]
Next, membranes were incubated with appropriate HRP-conjugated secondary antibodies. […] The signal intensity of the bands in western blots was quantified using Image Studio Lite version 5.2 (LI-COR Biotechnology, USA).

With `CC(C)c1cccc(-n2cc(C(=O)c3ccccc3N)nn2)c1` [ESRRA antagonist, (2-Aminophenyl)(1-(3-isopropylphenyl)-1H-1,2,3-triazol-4-yl)methanone] the “CDH1 expression (western blot, relative fold-change)” value was “significant increase”.
